Assay results published in patent US9978954B2, “Benzobis (thiadiazole) derivative, ink comprising same, and organic electronic device comprising same” (UBE INDUSTRIES, LTD., priority 2013, dated 2018).

Assay: Evaluation of solubility in organic solvents (visual observation of complete dissolution)
Format: physicochemical
Protocol: [Evaluation of Solubility]
The evaluation of the solubility of the synthesized compound was conducted by the following method.
About 2-3 mg of the compound was precisely weighed, and each solvent was added to the compound such that a predetermined concentration of the solute (0.5 wt %, 0.3 wt %, 0.2 wt %, 0.1 wt %, 0.05 wt %, or 0.03 wt %) was reached. The resultant mixture was stirred for 30 minutes at a predetermined temperature, and then it was evaluated by visual appearance observation whether or not the solute (synthesized compound) was completely dissolved in the solvent, which was the result of the evaluation of the solubility. As the solvent, chloroform (boiling point 61° C.), toluene (boiling point 111° C.), xylene (boiling point 144° C.), mesitylene (boiling point 165° C.), chlorobenzene (boiling point 130° C.), para-chlorotoluene (boiling point 162° C.), and ortho-dichlorobenzene (boiling point 181° C.) were used.

Structure (SMILES): CCCCCCc1cc(-c2ccc(-c3c4c(c(-c5ccc(-c6ccc(C#N)c(CCCCCC)c6)s5)c5nsnc35)N=S=N4)s2)ccc1C#N [Compound (C8), 4,8-bis[5-(4-cyano-3-hexylphenyl)thiophene-2-yl]benzo[1,2-c:4,5-c′]bis[1,2,5]thiadiazole]
- solubility (solute concentration completely dissolved) (chlorobenzene, 25° C.): ≥ 0.03 wt %
- solubility (solute concentration completely dissolved) (chloroform, 60° C.): ≥ 0.05 wt %
- solubility (solute concentration completely dissolved) (chloroform, 80° C.): ≥ 0.2 wt %
- solubility (solute concentration completely dissolved) (ortho-dichlorobenzene, 25° C.): ≥ 0.03 wt %
- solubility (solute concentration completely dissolved) (para-chlorotoluene, 100° C.): ≥ 0.3 wt %

Structure (SMILES): CCCCCCCCCCCCCCc1cc(-c2ccc(-c3c4c(c(-c5ccc(-c6ccc(C#N)c(CCCCCCCCCCCCCC)c6)s5)c5nsnc35)N=S=N4)s2)ccc1C#N [Compound (C18), 4,8-bis[5-(4-cyano-3-tetradecylphenyl)thiophene-2-yl]benzo[1,2-c:4,5-c′]bis[1,2,5]thiadiazole]
- solubility (solute concentration completely dissolved) (1-methylnaphthalene, 80° C.): ≥ 0.3 wt %
- solubility (solute concentration completely dissolved) (chlorobenzene, 100° C.): ≥ 0.3 wt %
- solubility (solute concentration completely dissolved) (chloroform, 60° C.): ≥ 0.2 wt %
- solubility (solute concentration completely dissolved) (ortho-dichlorobenzene, 80° C.): ≥ 0.3 wt %

Structure (SMILES): FC(F)(F)Sc1ccc(-c2ccc(-c3c4c(c(-c5ccc(-c6ccc(SC(F)(F)F)cc6)s5)c5nsnc35)N=S=N4)s2)cc1 [Compound (RC5), 4,8-bis[5-(4-((trifluoromethyl)thio)phenyl)thiophene-2-yl]benzo[1,2-c:4,5-c′]bis[1,2,5]thiadiazole, reference compound]
- solubility (solute concentration completely dissolved) (chlorobenzene, 100° C.): < 0.03 wt %
- solubility (solute concentration completely dissolved) (mesitylene, 100° C.): < 0.03 wt %
- solubility (solute concentration completely dissolved) (mesitylene, 130° C.): < 0.3 wt %
- solubility (solute concentration completely dissolved) (ortho-dichlorobenzene, 100° C.): < 0.03 wt %
- solubility (solute concentration completely dissolved) (toluene, 100° C.): < 0.03 wt %

Structure (SMILES): FC(F)(F)c1cccc(-c2ccc(-c3c4c(c(-c5ccc(-c6cccc(C(F)(F)F)c6)s5)c5nsnc35)N=S=N4)s2)c1 [Compound (C2), 4,8-bis[5-(3-(trifluoromethyl)phenyl)thiophene-2-yl]benzo[1,2-c:4,5-c′]bis[1,2,5]thiadiazole]
- solubility (solute concentration completely dissolved) (chlorobenzene, 80° C.): ≥ 0.1 wt %
- solubility (solute concentration completely dissolved) (chlorobenzene, 100° C.): ≥ 0.3 wt %
- solubility (solute concentration completely dissolved) (mesitylene, 25° C.): ≥ 0.03 wt %
- solubility (solute concentration completely dissolved) (mesitylene, 80° C.): ≥ 0.1 wt %
- solubility (solute concentration completely dissolved) (ortho-dichlorobenzene, 80° C.): ≥ 0.1 wt %
- solubility (solute concentration completely dissolved) (ortho-dichlorobenzene, 100° C.): ≥ 0.5 wt %
- solubility (solute concentration completely dissolved) (toluene, 25° C.): ≥ 0.03 wt %
- solubility (solute concentration completely dissolved) (toluene, 100° C.): ≥ 0.1 wt %

Structure (SMILES): FC(F)(F)c1ccccc1-c1ccc(-c2c3c(c(-c4ccc(-c5ccccc5C(F)(F)F)s4)c4nsnc24)N=S=N3)s1 [Compound (RR2), 4,8-bis[5-(2-(trifluoromethyl)phenyl)thiophene-2-yl]benzo[1,2-c:4,5-c′]bis[1,2,5]thiadiazole, reference compound]
- solubility (solute concentration completely dissolved) (chlorobenzene, 25° C.): ≥ 0.1 wt %
- solubility (solute concentration completely dissolved) (mesitylene, 25° C.): ≥ 0.1 wt %
- solubility (solute concentration completely dissolved) (ortho-dichlorobenzene, 25° C.): ≥ 0.1 wt %
- solubility (solute concentration completely dissolved) (toluene, 25° C.): ≥ 0.1 wt %

Structure (SMILES): CCCCCCCCCCC(F)(F)c1ccc(-c2ccc(-c3c4c(c(-c5ccc(-c6ccc(C(F)(F)CCCCCCCCCC)cc6)s5)c5nsnc35)N=S=N4)s2)cc1 [Compound (RC3), 4,8-bis[5-(4-(1,1-difluoroundecyl)phenyl)thiophene-2-yl]benzo[1,2-c:4,5-c′]bis[1,2,5]thiadiazole, reference compound]
- solubility (solute concentration completely dissolved) (chlorobenzene, 60° C.): < 0.03 wt %
- solubility (solute concentration completely dissolved) (mesitylene, 60° C.): < 0.03 wt %
- solubility (solute concentration completely dissolved) (toluene, 60° C.): < 0.03 wt %

Structure (SMILES): CCCCCCc1cc(-c2ccc(-c3c4c(c(-c5ccc(-c6ccc(OC(F)(F)F)c(CCCCCC)c6)s5)c5nsnc35)N=S=N4)s2)ccc1OC(F)(F)F [Compound (C12)]
- solubility (solute concentration completely dissolved) (chlorobenzene, 60° C.): ≥ 0.1 wt %
- solubility (solute concentration completely dissolved) (chlorobenzene, 80° C.): ≥ 0.5 wt %
- solubility (solute concentration completely dissolved) (mesitylene, 80° C.): ≥ 0.1 wt %
- solubility (solute concentration completely dissolved) (mesitylene, 130° C.): ≥ 0.5 wt %
- solubility (solute concentration completely dissolved) (ortho-dichlorobenzene, 60° C.): ≥ 0.1 wt %
- solubility (solute concentration completely dissolved) (ortho-dichlorobenzene, 80° C.): ≥ 0.5 wt %

Structure (SMILES): CCCCC(CC)Cc1cc(-c2ccc(-c3c4c(c(-c5ccc(-c6ccc(C(F)(F)F)c(CC(CC)CCCC)c6)s5)c5nsnc35)N=S=N4)s2)ccc1C(F)(F)F (stereo not drawn) [Compound (C30)]
- solubility (solute concentration completely dissolved) (1-methylnaphthalene, 60° C.): ≥ 0.3 wt %
- solubility (solute concentration completely dissolved) (chloroform, 60° C.): ≥ 0.2 wt %
- solubility (solute concentration completely dissolved) (mesitylene, 80° C.): ≥ 0.3 wt %
- solubility (solute concentration completely dissolved) (ortho-dichlorobenzene, 80° C.): ≥ 0.3 wt %
- solubility (solute concentration completely dissolved) (toluene, 80° C.): ≥ 0.3 wt %

Structure (SMILES): CCCCCCc1ccc(-c2ccc(-c3c4c(c(-c5ccc(-c6ccc(CCCCCC)c(C#N)c6)s5)c5nsnc35)N=S=N4)s2)cc1C#N [Compound (C7), 4,8-bis[5-(3-cyano-4-hexylphenyl)thiophene-2-yl]benzo[1,2-c:4,5-c′]bis[1,2,5]thiadiazole]
- solubility (solute concentration completely dissolved) (chlorobenzene, 25° C.): ≥ 0.1 wt %
- solubility (solute concentration completely dissolved) (chlorobenzene, 60° C.): ≥ 0.5 wt %
- solubility (solute concentration completely dissolved) (mesitylene, 60° C.): ≥ 0.1 wt %
- solubility (solute concentration completely dissolved) (mesitylene, 80° C.): ≥ 0.5 wt %
- solubility (solute concentration completely dissolved) (toluene, 60° C.): ≥ 0.1 wt %
- solubility (solute concentration completely dissolved) (toluene, 100° C.): ≥ 0.5 wt %

Structure (SMILES): FC(F)(F)c1ccc(-c2ccc(-c3c4c(c(-c5ccc(-c6ccc(C(F)(F)F)cc6)s5)c5nsnc35)N=S=N4)s2)cc1 [Compound (RC2), 4,8-bis[5-(4-(trifluoromethyl)phenyl)thiophene-2-yl]benzo[1,2-c:4,5-c′]bis[1,2,5]thiadiazole, reference compound]
- solubility (solute concentration completely dissolved) (chlorobenzene, 100° C.): < 0.03 wt %
- solubility (solute concentration completely dissolved) (mesitylene, 100° C.): < 0.03 wt %
- solubility (solute concentration completely dissolved) (mesitylene, 130° C.): < 0.3 wt %
- solubility (solute concentration completely dissolved) (ortho-dichlorobenzene, 100° C.): < 0.03 wt %
- solubility (solute concentration completely dissolved) (toluene, 100° C.): < 0.03 wt %

Structure (SMILES): FC(F)(F)c1cc(-c2ccc(-c3c4c(c(-c5ccc(-c6cc(C(F)(F)F)cc(C(F)(F)F)c6)s5)c5nsnc35)N=S=N4)s2)cc(C(F)(F)F)c1 [Compound (C3), 4,8-bis[5-(3,5-bis(trifluoromethyl)phenyl)thiophene-2-yl]benzo[1,2-c:4,5-c′]bis[1,2,5]thiadiazole]
- solubility (solute concentration completely dissolved) (chlorobenzene, 130° C.): ≥ 0.1 wt %
- solubility (solute concentration completely dissolved) (mesitylene, 130° C.): ≥ 0.1 wt %
- solubility (solute concentration completely dissolved) (ortho-dichlorobenzene, 100° C.): ≥ 0.1 wt %

Structure (SMILES): FC(F)(F)Oc1ccc(-c2ccc(-c3c4c(c(-c5ccc(-c6ccc(OC(F)(F)F)cc6)s5)c5nsnc35)N=S=N4)s2)cc1 [Compound (RC1), 4,8-bis[5-(4-(trifluoromethoxy)phenyl)thiophene-2-yl]benzo[1,2-c:4,5-c′]bis[1,2,5]thiadiazole, reference compound]
- solubility (solute concentration completely dissolved) (chlorobenzene, 100° C.): < 0.03 wt %
- solubility (solute concentration completely dissolved) (mesitylene, 100° C.): < 0.03 wt %
- solubility (solute concentration completely dissolved) (ortho-dichlorobenzene, 100° C.): < 0.03 wt %
- solubility (solute concentration completely dissolved) (toluene, 100° C.): < 0.03 wt %

Structure (SMILES): FC(F)(F)Oc1ccccc1-c1ccc(-c2c3c(c(-c4ccc(-c5ccccc5OC(F)(F)F)s4)c4nsnc24)N=S=N3)s1 [Compound (RR1), 4,8-bis[5-(2-(trifluoromethoxy)phenyl)thiophene-2-yl]benzo[1,2-c:4,5-c′]bis[1,2,5]thiadiazole, reference compound]
- solubility (solute concentration completely dissolved) (mesitylene, 80° C.): ≥ 0.1 wt %
- solubility (solute concentration completely dissolved) (toluene, 80° C.): ≥ 0.1 wt %
